Among the data in patent publication US20170283425A1, “COMPOUNDS FOR THE INHIBITION OF CYCLOPHILINS AND USES THEREOF” (Merck Patent GmbH, priority 2016, published 2017) are IC50 and Kd values, retold here.

Test [1] has as its target T1, CypD (Homo sapiens, UniProt P30405). The test can be described thus: CypD binding assay (competition fluorescence polarisation with fluorescein-labelled cyclosporin). The method, then: The binding capacity of the compounds were measured using a competition Fluorescence-Polarisation based assay with fluorescine labelled cyclosporin. The protocol used was adapted from Hausch et al, Med Chem lett 2010, p 536.

Test [2] has as its target T1, CypD. As to the kind of experiment: SPR binding. Particulars: SPR surface; read-out: SPR CypD (KDSS).
Excerpt: Binding was confirmed on an SPR surface using a protocol adapted from Mori et al., J. Biomolecular Screening, 2009 p 419.

T1 sequence (P30405 30-207): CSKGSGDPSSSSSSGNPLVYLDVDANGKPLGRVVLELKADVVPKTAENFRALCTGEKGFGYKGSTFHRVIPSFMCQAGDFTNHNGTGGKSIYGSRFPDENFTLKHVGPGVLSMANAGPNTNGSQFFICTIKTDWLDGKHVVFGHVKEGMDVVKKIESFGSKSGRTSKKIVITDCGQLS

The compound `CCN1Cc2cc(CCC(=O)NCC(=O)N3CCC[C@H]3CO)ccc2NCCC1=O` [Compound 34, 3-(5-Ethyl-4-oxo-1,2,3,4,5,6-hexahydro-benzo[b][1,5]diazocin-8-yl)-N-[2-((S)-2-hydroxymethyl-pyrrolidin-1-yl)-2-oxo-ethyl]-propionamide] had an IC50 at CypD [1] of 1 to 100 µM. The Kd on CypD [2] is 1 to 100 µM.
At CypD [1], `CCN1Cc2cc(CCC(=O)NCC(=O)N3CCCC3)ccc2NCCC1=O` [Compound 27, 3-(5-Ethyl-4-oxo-1,2,3,4,5,6-hexahydro-benzo[b][1,5]diazocin-8-yl)-N-(2-oxo-2-pyrrolidin-1-yl-ethyl)-propionamide] displayed a half-inhibitory concentration (IC50) of 1 to 100 µM. Moreover, the Kd at CypD [2] lay within 1 to 100 µM.
As for `CCN1Cc2cc(CCC(=O)N[C@@H](CO)C(=O)N3CCCC3)ccc2NCCC1=O` [Compound 29, 3-(5-Ethyl-4-oxo-1,2,3,4,5,6-hexahydro-benzo[b][1,5]diazocin-8-yl)-N—((S)-1-hydroxymethyl-2-oxo-2-pyrrolidin-1-yl-ethyl)-propionamide], the IC50 at CypD [1] was 1 to 100 µM. Besides, the Kd at CypD [2] lay within 1 to 100 µM.
Consider `CN(C(=O)CNC(=O)NCc1ccc2c(c1)[C@H]1C[C@@H](N2)[C@H](O)CO1)C1CCCC1` [Compound 20, N-cyclopentyl-2-(3-(((2R,3S,6R)-3-hydroxy-2,3,4,6-tetrahydro-1H-2,6-methanobenzo[c][1,5]oxazocin-8-yl)methyl)ureido)-N-methylacetamide], for which, at CypD [1], the IC50 lay within 1 to 100 µM. Moreover, the Kd on CypD [2] was 1 to 100 µM.
`O=C(NCC(=O)N1CCCC1c1ccccc1C(F)(F)F)NCc1ccc2c(c1)[C@@H]1C[C@H](N2)[C@H](O)CO1` (stereo partly drawn) [Compound 17, 1-(((2S,3S,6S)-3-hydroxy-2,3,4,6-tetrahydro-1H-2,6-methanobenzo[c][1,5]oxazocin-8-yl)methyl)-3-(2-oxo-2-(2-(2-(trifluoromethyl)phenyl)pyrrolidin-1-yl)ethyl)urea] gave a half-inhibitory concentration (IC50) on CypD [1] of 1 to 100 µM. For the same compound, the Kd on CypD [2] is 1 to 100 µM.
`O=C(NCC(=O)N1CCCC1c1ccccn1)NCc1ccc2c(c1)[C@H]1C[C@@H](N2)[C@H](O)CO1` (stereo partly drawn) [Compound 9, 1-(((2R,3S,6R)-3-hydroxy-2,3,4,6-tetrahydro-1H-2,6-methanobenzo[c][1,5]oxazocin-8-yl)methyl)-3-(2-oxo-2-(2-(pyridin-2-yl)pyrrolidin-1-yl)ethyl)urea]: the concentration for half-maximal inhibition (IC50) on CypD [1] lay within 1 to 100 µM. In addition, the Kd on CypD [2] is under 1 µM.
For `C[C@H](NC(=O)CCc1ccc2c(c1)[C@H]1C[C@@H](N2)[C@H](O)CO1)C(=O)N1CCCC1` [Compound 6, 3-((2R,3S,6R)-3-hydroxy-2,3,4,6-tetrahydro-1H-2,6-methanobenzo[c][1,5]oxazocin-8-yl)-N—((S)-1-oxo-1-(pyrrolidin-1-yl)propan-2-yl)propanamide] the same measures were 1 to 100 µM and 1 to 100 µM.
On CypD [1], `CSc1ccccc1[C@H]1CCCN1C(=O)CCC(=O)NCc1ccc2c(c1)[C@H]1C[C@@H](N2)[C@H](O)CO1` [Compound 2, N-((1R,9R,10S)-10-Hydroxy-12-oxa-8-aza-tricyclo[7.3.1.02,7]trideca-2,4,6-trien-4-ylmethyl)-4-[(R)-2-(2-methylsulfanyl-phenyl)-pyrrolidin-1-yl]-4-oxo-butyramide] gave an IC50 of under 1 µM. Further, the Kd at CypD [2] was under 1 µM.
For `CCN1Cc2cc(CNC(=O)NCC(=O)N3CCC[C@@H]3C(F)(F)F)ccc2NCCC1=O` [Compound 24, 1-(5-Ethyl-4-oxo-1,2,3,4,5,6-hexahydro-benzo[b][1,5]diazocin-8-ylmethyl)-3-[2-oxo-2-((R)-2-trifluoromethyl-pyrrolidin-1-yl)-ethyl]-urea], the IC50 on CypD [1] lay within 1 to 100 µM. Besides, the Kd at CypD [2] is 1 to 100 µM.
Turning to `CSc1ccccc1[C@H]1CCCN1C(=O)CNC(=O)CCc1ccc2c(c1)[C@H]1C[C@@H](N2)[C@H](O)CO1` [Compound 5, 3-((1R,9R,10S)-10-Hydroxy-12-oxa-8-aza-tricyclo[7.3.1.02,7]trideca-2(7),3,5-trien-4-yl)-N-{2-[(R)-2-(2-methylsulfanyl-phenyl)-pyrrolidin-1-yl]-2-oxo-ethyl}-propionamide], on CypD [1], the IC50 is under 1 µM. Further, the Kd at CypD [2] is under 1 µM.
On to `O=C(NCC(=O)N1CCC[C@@H]1C(F)(F)F)NCc1ccc2c(c1)[C@@H]1C[C@H](N2)[C@H](O)CO1` [Compound 37, 1-(((2S,3S,6S)-3-hydroxy-2,3,4,6-tetrahydro-1H-2,6-methanobenzo[c][1,5]oxazocin-8-yl)methyl)-3-(2-oxo-2-((R)-2-(trifluoromethyl)pyrrolidin-1-yl)ethyl)urea], for which, at CypD [1], the half-maximal inhibitory concentration (IC50) lay in the range of 1 to 100 µM. Moreover, the Kd at CypD [2] was 1 to 100 µM.
`O=C(NCC(=O)N1CCC[C@H]1CO)NCc1ccc2c(c1)[C@H]1C[C@@H](N2)[C@H](O)CO1` [Compound 13, 1-(((2R,3S,6R)-3-hydroxy-2,3,4,6-tetrahydro-1H-2,6-methanobenzo[c][1,5]oxazocin-8-yl)methyl)-3-(2-((S)-2-(hydroxymethyl)pyrrolidin-1-yl)-2-oxoethyl)urea] yielded a half-maximal inhibitory concentration (IC50) on CypD [1] of 1 to 100 µM. In addition, the Kd on CypD [2] lay in the range of 1 to 100 µM.
`CCN1Cc2cc(CCC(=O)NCC(=O)N3CCC[C@@H]3c3ccccc3SC)ccc2NCCC1=O` [Compound 11, 3-(5-Ethyl-4-oxo-1,2,3,4,5,6-hexahydro-benzo[b][1,5]diazocin-8-yl)-N-{2-[(R)-2-(2-methylsulfanyl-phenyl)-pyrrolidin-1-yl]-2-oxo-ethyl}-propionamide] gave a concentration for half-maximal inhibition (IC50) at CypD [1] of 1 to 100 µM. In addition, at CypD [2], the Kd was 1 to 100 µM.
As for `CCN1Cc2cc(CNC(=O)NCC(=O)N3CCCC3c3ccccc3C(F)(F)F)ccc2NCCC1=O` (stereo not drawn) [Compound 15, 1-(5-Ethyl-4-oxo-1,2,3,4,5,6-hexahydro-benzo[b][1,5]diazocin-8-ylmethyl)-3-{2-oxo-2-[2-(2-trifluoromethyl-phenyl)-pyrrolidin-1-yl]-ethyl}-urea], the IC50 at CypD [1] was 1 to 100 µM. Further, at CypD [2], the Kd lay within 1 to 100 µM.
`CCN1Cc2cc(CCC(=O)NCC(=O)N3CCCC3c3ccccc3C(F)(F)F)ccc2NCCC1=O` (stereo not drawn) [Compound 19, 3-(5-Ethyl-4-oxo-1,2,3,4,5,6-hexahydro-benzo[b][1,5]diazocin-8-yl)-N-{2-oxo-2-[2-(2-trifluoromethyl-phenyl)-pyrrolidin-1-yl]-ethyl}-propionamide]: the half-inhibitory concentration (IC50) at CypD [1] fell in the range of 1 to 100 µM. Further, at CypD [2], the Kd lay within 1 to 100 µM.
For the compound `CCN1Cc2cc(CCC(=O)NCC(=O)N(C)[C@H](C)c3ccccc3)ccc2NCCC1=O` [Compound 31, (R)-3-(5-ethyl-4-oxo-1,2,3,4,5,6-hexahydrobenzo[b][1,5]diazocin-8-yl)-N-(2-(methyl(1-phenylethyl)amino)-2-oxoethyl)propanamide], at CypD [1], the half-maximal inhibitory concentration (IC50) is 1 to 100 µM. For the same compound, at CypD [2], the Kd lay within 1 to 100 µM.
The compound `O=C(NCC(=O)N1CCC[C@@H]1C(F)(F)F)NCc1ccc2c(c1)[C@H]1C[C@@H](N2)[C@H](O)CO1` [Compound 8, 1-(((2R,3S,6R)-3-hydroxy-2,3,4,6-tetrahydro-1H-2,6-methanobenzo[c][1,5]oxazocin-8-yl)methyl)-3-(2-oxo-2-((R)-2-(trifluoromethyl)pyrrolidin-1-yl)ethyl)urea] registered an IC50 at CypD [1] of 1 to 100 µM. Further, on CypD [2], the Kd is 1 to 100 µM.
At CypD [1], `CCN1Cc2cc(CCC(=O)N[C@H](C(=O)N3CCCC3)c3ccccc3)ccc2NCCC1=O` [Compound 32, 3-(5-Ethyl-4-oxo-1,2,3,4,5,6-hexahydro-benzo[b][1,5]diazocin-8-yl)-N—((S)-2-oxo-1-phenyl-2-pyrrolidin-1-yl-ethyl)-propionamide] displayed an IC50 of 1 to 100 µM. In addition, the Kd on CypD [2] lay in the range of 1 to 100 µM.
In the case of `CCN1Cc2cc(CNC(=O)NCC(=O)N(C)[C@H](C)c3ccccc3)ccc2NCCC1=O` [Compound 35, (R)-2-(3-((5-ethyl-4-oxo-1,2,3,4,5,6-hexahydrobenzo[b][1,5]diazocin-8-yl)methyl)ureido)-N-methyl-N-(1-phenylethyl)acetamide], the IC50 on CypD [1] was 1 to 100 µM. For the same compound, the Kd at CypD [2] was in the range of 1 to 100 µM.
`CCN1Cc2cc(CCC(=O)NCC(=O)N3CCC[C@@H]3C(F)(F)F)ccc2NCCC1=O` [Compound 30, 3-(5-Ethyl-4-oxo-1,2,3,4,5,6-hexahydro-benzo[b][1,5]diazocin-8-yl)-N-[2-oxo-2-((R)-2-trifluoromethyl-pyrrolidin-1-yl)-ethyl]-propionamide] showed an IC50 on CypD [1] of 1 to 100 µM. For the same compound, at CypD [2], the Kd fell in the range of 1 to 100 µM.
Compound `CCN1Cc2cc(CNC(=O)NCC(=O)N3CCC[C@@H]3c3ccccc3SC)ccc2NCCC1=O` [Compound 3, 1-(5-Ethyl-4-oxo-1,2,3,4,5,6-hexahydro-benzo[b][1,5]diazocin-8-ylmethyl)-3-{2-[(R)-2-(2-methylsulfanyl-phenyl)-pyrrolidin-1-yl]-2-oxo-ethyl}-urea] returned a 50% inhibitory concentration (IC50) at CypD [1] of under 1 µM. The Kd on CypD [2] was under 1 µM.
At CypD [1], `CCN1Cc2cc(CNC(=O)NCC(=O)N3CCCC3c3ccccn3)ccc2NCCC1=O` (stereo not drawn) [Compound 36, 1-(5-Ethyl-4-oxo-1,2,3,4,5,6-hexahydro-benzo[b][1,5]diazocin-8-ylmethyl)-3-[2-oxo-2-(2-pyridin-2-yl-pyrrolidin-1-yl)-ethyl]-urea] came in with an IC50 of 1 to 100 µM. Also, the Kd at CypD [2] was in the range of 1 to 100 µM.
`O=C(NCC(=O)N1CCC[C@@H]1CO)NCc1ccc2c(c1)[C@H]1C[C@@H](N2)[C@H](O)CO1` [Compound 14, 1-(((2R,3S,6R)-3-hydroxy-2,3,4,6-tetrahydro-1H-2,6-methanobenzo[c][1,5]oxazocin-8-yl)methyl)-3-(2-((R)-2-(hydroxymethyl)pyrrolidin-1-yl)-2-oxoethyl)urea]: on CypD [1], the 50% inhibitory concentration (IC50) lay within 1 to 100 µM. For the same compound, at CypD [2], the Kd lay within 1 to 100 µM.
For `O=C(NCC(=O)N1CCCC1c1cccnc1)NCc1ccc2c(c1)[C@H]1C[C@@H](N2)[C@H](O)CO1` (stereo partly drawn) [Compound 18, 1-((1R,9R,10S)-10-Hydroxy-12-oxa-8-aza-tricyclo[7.3.1.02,7]trideca-2(7),3,5-trien-4-ylmethyl)-3-[2-oxo-2-(2-pyridin-3-yl-pyrrolidin-1-yl)-ethyl]-urea], at CypD [1], the IC50 lay within 1 to 100 µM. On CypD [2], the Kd is 1 to 100 µM.
